{"source": "patent US10087233B2", "about": "“Coagulation factor VIII with reduced immunogenicity” (IMNATE SARL, priority 2012, dated 2018)", "key": {"human iNKT cells": {"test_system": "human iNKT cells", "assay": "Cell cluster formation of human iNKT cells with peptide-loaded U937 cells", "type": "cell-based", "conditions": "iNKT cells with loaded U937 cells 1:1, 2 weeks, IL-2; FIG. 5", "method": "In order to establish whether human PBMC contained cells reacting with a CD1d-binding peptide epitope, invariant NKT (iNKT) cells were prepared from a buffy coat using magnetic beads coated with an antibody specific to the Valpha24-Jalpha18 chain of the T cell receptor (so-called invariant chain).\nSaid human iNKT cells (10^5/condition) were then incubated with mitomycine-C treated U937 cells (Ratio 1:1) loaded with 5 μg of either peptide encompassing aminoacid residues 188-204 of human factor VIII (SEQ ID NO: 5) or with control peptide (MHCII-MOG). Incubation was carried out for 2 weeks at 37° C. in RPMI containing 10% of fetal calf serum and 50 U/ml of human recombinant IL-2.\nCulture plates were examined by eye for the presence of cell clusters. […] FIG. 5 illustrates the average of three microscopic field count of this observation (minimum 10 cells/cluster)."}, "NKT cells [1]": {"test_system": "NKT cells", "assay": "Immunization with loaded JAWS2 cells, CD4+/CD8+ lineage of DX5/CD160 cells binding CD1d tetramers", "type": "in vivo, factor VIII KO mice", "method": "To determine the cell lineage to which NKT cells belonged, an experiment was performed as described in Example 2. Thus, JAWS2 cells were loaded with either peptide of SEQ ID NO: 3, B-domain-deleted factor VIII, alpha-gal-ceramide or kept unloaded before intraperitoneal (IP) injection in factor VIII KO mice (2×10^6 cells per mouse). Five days after intraperitoneal injections, the mice were sacrificed and the splenocytes prepared. Cell suspensions were then reacted with CD1d tetramers unloaded or loaded with peptide of SEQ ID NO: 3 or with alpha-gal-ceramide.\nFor faccs analysis, cells binding CD1d tetramers were labeled with DX5- and CD160-specific antibodies and either anti-CD4 or anti-CD8 antibodies. The table summarizes the results."}, "CD1d tetramers": {"molecular_target": "T1, CD1d tetramers (Mus musculus, UniProt P11609)", "T1 construct": "purchased ProImmune", "T1 sequence (P11609 22-305 limits assumed)": "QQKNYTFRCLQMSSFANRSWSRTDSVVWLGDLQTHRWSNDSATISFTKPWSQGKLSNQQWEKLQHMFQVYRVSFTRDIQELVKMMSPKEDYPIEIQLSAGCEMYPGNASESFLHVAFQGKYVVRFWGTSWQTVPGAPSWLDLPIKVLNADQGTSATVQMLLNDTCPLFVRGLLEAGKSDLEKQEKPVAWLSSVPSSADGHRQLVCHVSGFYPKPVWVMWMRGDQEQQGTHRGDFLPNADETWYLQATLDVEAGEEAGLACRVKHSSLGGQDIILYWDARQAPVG", "T1 sequence (P01887 21-119 partner)": "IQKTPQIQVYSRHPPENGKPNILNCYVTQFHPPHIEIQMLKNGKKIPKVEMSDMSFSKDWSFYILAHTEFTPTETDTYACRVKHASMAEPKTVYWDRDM", "assay": "CD1d tetramers loaded with peptide, detection of NKT cells among CD4+ spleen cells", "type": "binding", "conditions": "CD4+ spleen cells of naïve mice; FIG. 1", "method": "A peptide encompassing SEQ ID NO: 1 was obtained by chemical synthesis. This peptide was used to load CD1d tetramers (ProImmune) by overnight incubation.\nNKT cells were prepared from the spleen of naïve mice by depletion of all CD4(−) cells using magnetic beads.\nCD4+ cells were then incubated with CD1d tetramers loaded by peptide of SEQ ID NO: 1 (P28 WT in FIG. 1), which corresponds to aminoacid sequence 190 to 209."}, "U937 cells": {"test_system": "U937 cells", "assay": "CD1d surface expression on U937 cells incubated with peptide (FACS)", "type": "cell-based, human", "conditions": "as example 4; FIG. 6", "method": "To determine whether human antigen-presenting cells had the capacity to process and present a peptide epitope in the context of the CD1d molecule, the human macrophage cell line U937 was used.\nThe percentage of resting U937 cells expressing CD1d is low as detected with a specific anti-CD1d antibody. It was reasoned that, if U937 cells were incubated with a peptide having the sequence motif enabling it to bind to CD1d, then this should be detectable by increased expression of CD1d at cell surface. As observed for peptides encompassing MHC class II epitopes, the binding of a peptide stabilizes the conformation of the molecule (class II, or CD1d in the present case), allowing the complex to be anchored at cell surface and reducing its intracellular recycling.\nU937 cells (7×10^5 cells) were incubated for 24h at 37° C. with 5 μg of peptide encompassing CD1d binding motifs or controls. The cells were then washed and incubated with fluorescence-labeled antibodies specific to CD1d and the number of positive cells evaluated using a FACS system.\nControls include (from left to right) unloaded U937, cells incubated with alpha-gal-ceramide and a conventional class II-restricted epitope (MHCII-MOG). The experiment includes sequences of factor VIII of either human (SEQ ID NO: 5) or mouse (SEQ ID NO: 6) origin corresponding to aminoacids 188-204 of the factor VIII sequence. […]"}, "NKT cells [2]": {"test_system": "NKT cells", "assay": "Immunization with JAWS2 cells loaded with peptide, tetramer detection of NKT cells in spleen", "type": "in vivo, factor VIII KO mice", "conditions": "tetramers loaded with peptide, FIG. 2", "method": "JAWS2 cells express CD1d but not MHC class II determinants.\nJAWS2 cells were incubated 2 h at 37° C. with peptide of SEQ ID NO: 1 (10 μg/ml) and thoroughly washed twice. Cells were then treated with mitomycin to block cell division and washed 4 times to eliminate mitomycin. A cell suspension containing 2×10^6 cells in physiological serum was injected by the intraperitoneal route in each of a series of 3 naïve factor VIII KO mice. As a control, 3 naïve factor VIII KO mice received the same number of JAWS2 cells which had not been incubated with peptide of SEQ ID NO: 1.\nFive days after IP injection, the mice were sacrificed and their spleen prepared as above using magnetic beads to eliminate all CD4(−) cells.\nCD4+ cells were then incubated with tetramers loaded with peptide of SEQ ID NO: 1."}, "[3]": {"conditions": "mice given JAWS2 loaded with the labelled substance, tetramers loaded with Alpha-gal-cer"}, "[4]": {"conditions": "mice given JAWS2 loaded with the labelled substance, tetramers loaded with Peptide SEQ ID NO: 3"}, "[5]": {"conditions": "mice given JAWS2 loaded with the labelled substance, unloaded tetramers"}, "[6]": {"conditions": "mice given unloaded JAWS2 (natural repertoire), tetramers loaded with the labelled substance"}}, "data": [{"compound": "CCCCCCCCCCCCCCCCCCCCCCCCCC(=O)N[C@@H](CO[C@H]1O[C@H](CO)[C@H](O)[C@H](O)[C@H]1O)[C@H](O)[C@H](O)CCCCCCCCCCCCCC", "note": "[Alpha-gal-cer, alpha-gal-ceramide, reference compound]", "values": [{"measurement": "presence of cell clusters (clumps of cells)", "setting": "human iNKT cells", "value": "to the same extent"}, {"measurement": "Number of DX5/CD160 cells, CD4+", "setting": "NKT cells [1]; [3]", "value": "2.3 ×10^3"}, {"measurement": "Number of DX5/CD160 cells, CD8+", "setting": "NKT cells [1]; [3]", "value": "1.8 ×10^3"}, {"measurement": "Number of DX5/CD160 cells, CD4+", "setting": "NKT cells [1]; [4]", "value": "46 ×10^3"}, {"measurement": "Number of DX5/CD160 cells, CD8+", "setting": "NKT cells [1]; [4]", "value": "1.9 ×10^3"}, {"measurement": "Number of DX5/CD160 cells, CD4+", "setting": "NKT cells [1]; [5]", "value": "0.1 ×10^3"}, {"measurement": "Number of DX5/CD160 cells, CD8+", "setting": "NKT cells [1]; [5]", "value": "0 ×10^3"}, {"measurement": "Number of DX5/CD160 cells, CD4+", "setting": "NKT cells [1]; [6]", "value": "1.2 ×10^3"}, {"measurement": "Number of DX5/CD160 cells, CD8+", "setting": "NKT cells [1]; [6]", "value": "1.3 ×10^3"}]}, {"compound": "AVFDEGKSWHS (homo sapiens) [SEQ ID NO: 4, human factor VIII 200-210]", "values": [{"measurement": "CD1d binding motif / NKT cells detected by peptide-loaded tetramers (in words)", "setting": "CD1d tetramers", "value": "limited though significant"}]}, {"compound": "KTQTLHKFILLFAVFDE (listed as Homo sapiens) [SEQ ID NO: 5, human factor VIII 188-204]", "values": [{"measurement": "presence of cell clusters (clumps of cells)", "setting": "human iNKT cells", "value": "clumps of cells form"}]}, {"compound": "QTLHKFILLFA (homo sapiens) [SEQ ID NO: 3, human factor VIII 190-200]", "values": [{"measurement": "CD1d binding motif / NKT cells detected by peptide-loaded tetramers (in words)", "setting": "CD1d tetramers", "value": "major CD1d binding motif"}, {"measurement": "Number of DX5/CD160 cells, CD4+", "setting": "NKT cells [1]; [3]", "value": "2.2 ×10^3"}, {"measurement": "Number of DX5/CD160 cells, CD8+", "setting": "NKT cells [1]; [3]", "value": "0.8 ×10^3"}, {"measurement": "Number of DX5/CD160 cells, CD4+", "setting": "NKT cells [1]; [4]", "value": "47 ×10^3"}, {"measurement": "Number of DX5/CD160 cells, CD8+", "setting": "NKT cells [1]; [4]", "value": "4.1 ×10^3"}, {"measurement": "Number of DX5/CD160 cells, CD4+", "setting": "NKT cells [1]; [5]", "value": "0.2 ×10^3"}, {"measurement": "Number of DX5/CD160 cells, CD8+", "setting": "NKT cells [1]; [5]", "value": "0.1 ×10^3"}, {"measurement": "Number of DX5/CD160 cells, CD4+", "setting": "NKT cells [1]; [6]", "value": "39 ×10^3"}, {"measurement": "Number of DX5/CD160 cells, CD8+", "setting": "NKT cells [1]; [6]", "value": "3.5 ×10^3"}, {"measurement": "expression of CD1d at the surface of U937 cells (in words)", "setting": "U937 cells", "value": "did not increase"}]}, {"compound": "QTLHKFILLFAVFDEGKSWH (listed as Homo sapiens) [SEQ ID NO: 1, human factor VIII 190-209]", "values": [{"measurement": "% of CD4+ T cells detected by CD1d tetramers loaded with peptide", "setting": "CD1d tetramers", "value": "~1", "unit": "%"}, {"measurement": "proportion of NKT cells specific for peptide when peptide is presented by JAWS2 cells", "setting": "NKT cells [2]; 5 days after IP injection of 2×10^6 peptide-loaded JAWS2 cells", "value": 16, "unit": "%"}, {"measurement": "proportion of NKT cells specific for peptide, natural repertoire", "setting": "NKT cells [2]; control mice given JAWS2 cells not incubated with peptide", "value": 8, "unit": "%"}]}]}
